The values that follow come from US20220132846A1, “1-PYRIDYL-PYRAZOLYL AMIDE COMPOUNDS AND PREPARATION AND USES THEREOF” (HUNAN RESEARCH INSTITUTE OF CHEMICAL INDUSTRY CO., LTD., priority 2019, published 2022).

One assay has as its system Aphis fabae. Put plainly: Test against aphid, leaf dip method (Aphis fabae). Particulars: foliar; for mortality at 12.5 µg/mL: 12.5 mg/L; for mortality at 12.5 µg/mL / mortality at 50 µg/mL / mortality at 200 µg/mL / mortality at 500 µg/mL: after 24 hours, read-out: Activity (mortality) level against Aphis fabae; for mortality at 50 µg/mL: 50 mg/L; for mortality at 200 µg/mL: 200 mg/L; for mortality at 500 µg/mL: 500 mg/L. It is filed as in vivo. The procedure: For evaluating the activity of the compounds of this invention against Homoptera pests, Aphis fabae, wheat aphids, etc. were selected as the test insects, and the activity of the compounds of this invention against aphids was measured by leaf dip method indoors.
Leaf dip method (Aphis fabae): the test compound was dissolved in an appropriate solvent such as N,N-dimethylformamide, and then diluted with 0.2% aqueous solution of Tween 80 to the desired concentration, Those without the test compounds were set as blank controls, the treatments were replicated 3 times. Horsebean seedlings with no less than twenty 3-day-old Aphis fabae per plant was cut from the stem, 5 horsebean seedlings with the insects were dipped in the test solution for 5 seconds, then inserted into a sponge filled with water after sucked dry using filter paper, then covered with a glass tube and placed in a chamber for culture. After 24 hours, the number of living and dead insects were investigated and the results were averaged. […]

Assay [1] has as its system Armyworm (Mythimna separata (Walker)). Put plainly: Test against armyworm, Potter tower method. It is filed as in vivo. Particulars: for mortality at 50 µg/mL / mortality at 500 µg/mL / mortality at 12.5 µg/mL: Mythimna separata, third-instar larvae, after 72 hours, read-out: Activity (mortality) level against armyworm; for mortality at 50 µg/mL: 50 mg/L; for mortality at 500 µg/mL: 500 mg/L; for mortality at 12.5 µg/mL: 12.5 mg/L. The procedure:
Potter tower method: the test compound was dissolved in an appropriate solvent such as N,N-dimethylformamide, and then diluted with 0.2% aqueous solution of Tween 80 to the desired concentration, Those without the test compounds were set as blank controls. The fresh and tender corn leaves were taken and cut into fragments of basically the same size, then put into a Petri dish (diameter 90 mm) padded with filter paper in advance. Ten third-instar larvae of test insects were transferred into the dish and then placed under the Potter spray tower for being sprayed, each concentration treatment was sprayed at the amount of 1 mL and replicated 3 times. The dish was covered and then placed in a chamber for culture and observed regularly, after 72 hours, the dead insects was investigated and recorded and the mean mortality was calculated. […]

Structures are written as SMILES.

As for `CCCN(C)C(=O)c1cc(Cl)cc(Br)c1N(C)C(=O)c1cc(Br)nn1-c1ncccc1Cl` [Compound 33, N-[2-bromo-4-chloro-6-[(methyl(propyl)amino)carbonyl]phenyl]-N-methyl-1-(3-chloro-2-pyridinyl)-3-bromo-1H-pyrazole-5-carboxamide], in the assay on Aphis fabae, the mortality at 12.5 µg/mL lay within 90 to 100%, the mortality at 50 µg/mL was in the range of 90 to 100%, the mortality at 200 µg/mL is 90 to 100% and the mortality at 500 µg/mL lay within 90 to 100%. Further, in assay [1], the mortality at 50 µg/mL fell in the range of 90 to 100% and the mortality at 500 µg/mL was 90 to 100%.

Consider `CC(C)N(C)C(=O)c1cc(Cl)cc(Br)c1N(C)C(=O)c1cc(Br)nn1-c1ncccc1Cl` [Compound 34, N-[2-bromo-4-chloro-6-[(methyl(isopropyl)amino)carbonyl]phenyl]-N-methyl-1-(3-chloro-2-pyridinyl)-3-bromo-1H-pyrazole-5-carboxamide], for which, in the assay with Aphis fabae, the mortality at 12.5 µg/mL lay within 90 to 100%, the mortality at 50 µg/mL lay in the range of 90 to 100%, the mortality at 200 µg/mL lay in the range of 90 to 100% and the mortality at 500 µg/mL was in the range of 90 to 100%. Also, in the assay with Aphis fabae (further test, read-out: LC50 against Aphis fabae), the LC50 is less than 1 µg/mL. Besides, in assay [1], the mortality at 50 µg/mL was 90 to 100% and the mortality at 500 µg/mL is 90 to 100%.

Take `CN(C(=O)c1cc(Br)nn1-c1ncccc1Cl)c1c(Br)cc(Cl)cc1C(=O)N(C)C1CC1` [Compound 35, N-[2-bromo-4-chloro-6-[(methyl(cyclopropyl)amino)carbonyl]phenyl]-N-methyl-1-(3-chloro-2-pyridinyl)-3-bromo-1H-pyrazole-5-carboxamide]: in the assay with Aphis fabae, the mortality at 12.5 µg/mL fell in the range of 90 to 100%, the mortality at 50 µg/mL was 90 to 100%, the mortality at 200 µg/mL was in the range of 90 to 100% and the mortality at 500 µg/mL was 90 to 100%. For the same compound, in assay [1], the mortality at 50 µg/mL was in the range of 90 to 100% and the mortality at 500 µg/mL was 90 to 100%.

`CN(C(=O)c1cc(Br)nn1-c1ncccc1Cl)c1c(Br)cc(Cl)cc1C(=O)N(C)C(C)(C)C` [Compound 36, N-[2-bromo-4-chloro-6-[(methyl(tert-butyl)amino)carbonyl]phenyl]-N-methyl-1-(3-chloro-2-pyridinyl)-3-bromo-1H-pyrazole-5-carboxamide]: in the assay with Aphis fabae, the mortality at 50 µg/mL fell in the range of 90 to 100%, the mortality at 200 µg/mL fell in the range of 90 to 100% and the mortality at 500 µg/mL fell in the range of 90 to 100%. In assay [1], the mortality at 50 µg/mL was 90 to 100% and the mortality at 500 µg/mL lay in the range of 90 to 100%.

Take `CCN(CC)C(=O)c1cc(Cl)cc(Br)c1N(C)C(=O)c1cc(Br)nn1-c1ncccc1Cl` [Compound 37, N-[2-bromo-4-chloro-6-[(diethylamino)carbonyl]phenyl]-N-methyl-1-(3-chloro-2-pyridinyl)-3-bromo-1H-pyrazole-5-carboxamide]: in the assay on Aphis fabae, the mortality at 12.5 µg/mL was 90 to 100%, the mortality at 50 µg/mL is 90 to 100%, the mortality at 200 µg/mL is 90 to 100% and the mortality at 500 µg/mL is 90 to 100%. For the same compound, in assay [1], the mortality at 12.5 µg/mL was 90 to 100%, the mortality at 50 µg/mL lay within 90 to 100% and the mortality at 500 µg/mL lay within 90 to 100%.

On to `CCN(C(=O)c1cc(Br)nn1-c1ncccc1Cl)c1c(Br)cc(Cl)cc1C(=O)N(C)C` [Compound 38, N-[2-bromo-4-chloro-6-[(dimethylamino)carbonyl]phenyl]-N-ethyl-1-(3-chloro-2-pyridinyl)-3-bromo-1H-pyrazole-5-carboxamide], for which, in the assay with Aphis fabae, the mortality at 12.5 µg/mL is 90 to 100%, the mortality at 50 µg/mL was 90 to 100%, the mortality at 200 µg/mL lay within 90 to 100% and the mortality at 500 µg/mL was 90 to 100%. Also, in assay [1], the mortality at 50 µg/mL fell in the range of 90 to 100% and the mortality at 500 µg/mL is 90 to 100%.

On to `CCN(C)C(=O)c1cc(Cl)cc(Br)c1N(CC)C(=O)c1cc(Br)nn1-c1ncccc1Cl` [Compound 39, N-[2-bromo-4-chloro-6-[(methyl(ethyl)amino)carbonyl]phenyl]-N-ethyl-1-(3-chloro-2-pyridinyl)-3-bromo-1H-pyrazole-5-carboxamide], for which, in the assay on Aphis fabae, the mortality at 12.5 µg/mL is 90 to 100%, the mortality at 50 µg/mL lay in the range of 90 to 100%, the mortality at 200 µg/mL lay within 90 to 100% and the mortality at 500 µg/mL lay in the range of 90 to 100%. Also, in assay [1], the mortality at 50 µg/mL is 90 to 100% and the mortality at 500 µg/mL fell in the range of 90 to 100%.

Turning to `CCN(CC)C(=O)c1cc(Cl)cc(Br)c1N(CC)C(=O)c1cc(Br)nn1-c1ncccc1Cl` [Compound 40, N-[2-bromo-4-chloro-6-[(diethylamino)carbonyl]phenyl]-N-ethyl-1-(3-chloro-2-pyridinyl)-3-bromo-1H-pyrazole-5-carboxamide], in the assay with Aphis fabae, the mortality at 12.5 µg/mL fell in the range of 90 to 100%, the mortality at 50 µg/mL fell in the range of 90 to 100%, the mortality at 200 µg/mL lay within 90 to 100% and the mortality at 500 µg/mL was in the range of 90 to 100%. In assay [1], the mortality at 12.5 µg/mL fell in the range of 90 to 100%, the mortality at 50 µg/mL lay within 90 to 100% and the mortality at 500 µg/mL fell in the range of 90 to 100%. For the same compound, in assay [1] (compared with chlorantraniliprole (D1)), the “Activity against armyworm, further screening (in words)” value is reported as “excellent activity”.

For `CCCN(C(=O)c1cc(Br)nn1-c1ncccc1Cl)c1c(Br)cc(Cl)cc1C(=O)N(C)C` [Compound 41, N-[2-bromo-4-chloro-6-[(dimethylamino)carbonyl]phenyl]-N-propyl-1-(3-chloro-2-pyridinyl)-3-bromo-1H-pyrazole-5-carboxamide], in the assay on Aphis fabae, the mortality at 12.5 µg/mL is 90 to 100%, the mortality at 50 µg/mL lay in the range of 90 to 100%, the mortality at 200 µg/mL fell in the range of 90 to 100% and the mortality at 500 µg/mL fell in the range of 90 to 100%. Moreover, in assay [1], the mortality at 50 µg/mL was 90 to 100% and the mortality at 500 µg/mL fell in the range of 90 to 100%.

Consider `CNC(=O)c1cc(Cl)cc(C)c1N(C)C(=O)c1cc(Br)nn1-c1ncccc1Cl` [Compound 42, N-[2-methyl-4-chloro-6-[(methylamino)carbonyl]phenyl]-N-methyl-1-(3-chloro-2-pyridinyl)-3-bromo-1H-pyrazole-5-carboxamide], for which, in the assay on Aphis fabae, the mortality at 12.5 µg/mL lay in the range of 90 to 100%, the mortality at 50 µg/mL was in the range of 90 to 100%, the mortality at 200 µg/mL was 90 to 100% and the mortality at 500 µg/mL is 90 to 100%. For the same compound, in assay [1], the mortality at 12.5 µg/mL lay within 90 to 100%, the mortality at 50 µg/mL fell in the range of 90 to 100% and the mortality at 500 µg/mL was 90 to 100%.

In the case of `CCNC(=O)c1cc(Cl)cc(C)c1N(C)C(=O)c1cc(Br)nn1-c1ncccc1Cl` [Compound 43, N-[2-methyl-4-chloro-6-[(ethylamino)carbonyl]phenyl]-N-methyl-1-(3-chloro-2-pyridinyl)-3-bromo-1H-pyrazole-5-carboxamide], in the assay with Aphis fabae, the mortality at 500 µg/mL lay in the range of 90 to 100%. Moreover, in assay [1], the mortality at 50 µg/mL lay within 90 to 100% and the mortality at 500 µg/mL is 90 to 100%.

In the case of `Cc1cc(Cl)cc(C(=O)N(C)C)c1N(C)C(=O)c1cc(Br)nn1-c1ncccc1Cl` [Compound 44, N-[2-methyl-4-chloro-6-[(dimethylamino)carbonyl]phenyl]-N-methyl-1-(3-chloro-2-pyridinyl)-3-bromo-1H-pyrazole-5-carboxamide], the mortality at 500 µg/mL (in the assay with Aphis fabae; in assay [1]) was 90 to 100% throughout. Also, the mortality at 50 µg/mL in assay [1] is 90 to 100%.

On to `CCN(C)C(=O)c1cc(Cl)cc(C)c1N(C)C(=O)c1cc(Br)nn1-c1ncccc1Cl` [Compound 45, N-[2-methyl-4-chloro-6-[(methyl(ethyl)amino)carbonyl]phenyl]-N-methyl-1-(3-chloro-2-pyridinyl)-3-bromo-1H-pyrazole-5-carboxamide], for which the mortality at 500 µg/mL (with Aphis fabae; in assay [1]) was 90 to 100% in each case.
